Results taken from PMC5487684, “Safety, Pharmacokinetics, and Antiviral Activity of a Novel HIV Antiviral, ABX464, in Treatment-Naive HIV-Infected Subjects in a Phase 2 Randomized, Controlled Study” (Antimicrobial Agents and Chemotherapy, 2017).

System: HIV-infected subjects
Test: Safety and tolerability (TEAEs, ECG, laboratory) after repeated oral administration, phase 2a study
Format: in vivo, human
Conditions: for Subjects experiencing at least one TEAE: Flank pain / Subjects experiencing at least one TEAE: Headache / Subjects experiencing at least one TEAE: Injury, poisoning, and procedural complications / Subjects experiencing at least one TEAE: Musculoskeletal and connective tissue disorders / Subjects experiencing at least one TEAE: Nausea / Subjects experiencing at least one TEAE: Neck pain / Subjects experiencing at least one TEAE: Nervous system disorders / Subjects experiencing at least one TEAE: Pain in extremity / Subjects experiencing at least one TEAE: Sciatica, back pain / Subjects experiencing at least one TEAE: Skin abrasion / Subjects experiencing at least one TEAE: Total / Subjects experiencing at least one TEAE: Upper abdominal pain / Subjects experiencing at least one TEAE: Vomiting / Subjects experiencing at least one TEAE: Abdominal pain / Subjects experiencing at least one TEAE: Arthralgia / Subjects experiencing at least one TEAE: Back pain / Subjects experiencing at least one TEAE: Diarrhea / Subjects experiencing at least one TEAE: Gastrointestinal disorders: fed
Method: Participants were assigned to one of eight groups; each group (with one exception) included eight subjects receiving either ABX464 (n = 6) or the corresponding placebo (n = 2) according to a randomization code. […] In the present study with HIV-infected subjects, the first dose administered was 25 mg, given once or 3 times a day over a 2- to 3-week period. This initial dose was therefore considered safe for assessment of the safety and tolerability of ABX464 after repeated oral administrations in subjects infected by HIV and determination of the potential effect on the HIV viral load.
The final dosing protocol for each of the eight groups was as follows: group 1, 25 mg every 3 days for 2 to 3 weeks under fasted conditions; group 2, 25 mg once a day (q.d.) for 2 to 3 weeks under fasted conditions; group 3, 50 mg once a day for 2 to 3 weeks under fasted conditions; group 4, 50 mg 3 times a day (t.i.d.) for 4 weeks under fed conditions; group 5, 75 mg once a day for 2 weeks under fed conditions; group 6, 100 mg once a day for 2 to 3 weeks under fasted conditions; group 7, 150 mg every 3 days for 2 to 3 weeks under fed conditions; and group 8, 150 mg once a day for 2 weeks under fed conditions. Per the study protocol, the treatment period was defined as 2 weeks. […] The decision to proceed to the next highest dose was determined by the data and safety monitoring board after review of the laboratory safety data, vital signs, ECGs, and adverse event reports from the group receiving the current dose after 2 weeks of treatment.
Subjects were hospitalized from the day prior to the first dose to at least the morning of day 2. They were orally dosed with 25-mg capsules of ABX464 with 240 ml water under fed or fasted conditions. According to the group, subjects were dosed with 1, 2, 3, 4, or 6 capsules to deliver 25 mg, 50 mg, 75 mg, 100 mg, or 150 mg product, respectively, or the same number of placebo capsules.
Safety assessments and laboratory tests were carried out according to the schedules described in Table S4 for groups dosed every day, every 3 days, and 3 times a day. Follow-up visits were scheduled for 7 days after the last dose and subsequently once every week in order to assess the elimination of the main ABX464 metabolite and to assess the viral load. Follow-up visits were terminated when the virus load was within 0.5 log of the baseline value or after 3 follow-up visits, whichever came first. Prior to the statistical analyses, AEs were coded using the Medical Dictionary for Regulatory Activities (MedDRA dictionary; last available version) in order to be tabulated by system organ class (SOC) and preferred term (PT). The AEs were analyzed according to the treatment emergence phase from the first study drug administration on day 1 up to 48 h after the last study drug administration. The number and percentage of subjects with at least one TEAE were tabulated by SOC and PT for each group and dose. The number of occurrences of TEAEs was also analyzed in the same way by SOC and PT for each group and dose, by grade of severity for each group and dose, and by level of causality to the study drug for each group and dose.

[1] = Group 7 (n = 6), 150 mg every 3 days, Mild
[2] = Group 7 (n = 6), 150 mg every 3 days, Moderate
[3] = Group 8 (n = 6), 150 mg q.d., Mild
[4] = Group 8 (n = 6), 150 mg q.d., Moderate

Compound: FC(F)(F)Oc1ccc(Nc2ccc3cccc(Cl)c3n2)cc1 [ABX464]
- Subjects experiencing at least one TEAE: Flank pain [1]: 0 (0.0) No. (%)
- Subjects experiencing at least one TEAE: Headache [1]: 4 (66.7) No. (%)
- Subjects experiencing at least one TEAE: Injury, poisoning, and procedural complications [1]: 0 (0.0) No. (%)
- Subjects experiencing at least one TEAE: Musculoskeletal and connective tissue disorders [1]: 1 (16.7) No. (%)
- Subjects experiencing at least one TEAE: Nausea [1]: 4 (66.7) No. (%)
- Subjects experiencing at least one TEAE: Neck pain [1]: 0 (0.0) No. (%)
- Subjects experiencing at least one TEAE: Nervous system disorders [1]: 4 (66.7) No. (%)
- Subjects experiencing at least one TEAE: Pain in extremity [1]: 0 (0.0) No. (%)
- Subjects experiencing at least one TEAE: Sciatica, back pain [1]: 0 (0.0) No. (%)
- Subjects experiencing at least one TEAE: Skin abrasion [1]: 0 (0.0) No. (%)
- Subjects experiencing at least one TEAE: Total [1]: 5 (83.3) No. (%)
- Subjects experiencing at least one TEAE: Upper abdominal pain [1]: 0 (0.0) No. (%)
- Subjects experiencing at least one TEAE: Vomiting [1]: 1 (16.7) No. (%)
- Subjects experiencing at least one TEAE: Abdominal pain [2]: 0 (0.0) No. (%)
- Subjects experiencing at least one TEAE: Arthralgia [2]: 0 (0.0) No. (%)
- Subjects experiencing at least one TEAE: Back pain [2]: 0 (0.0) No. (%)
- Subjects experiencing at least one TEAE: Diarrhea [2]: 0 (0.0) No. (%)
- Subjects experiencing at least one TEAE: Flank pain [2]: 0 (0.0) No. (%)
- Subjects experiencing at least one TEAE: Gastrointestinal disorders [2]: 3 (50.0) No. (%)
- Subjects experiencing at least one TEAE: Headache [2]: 3 (50.0) No. (%)
- Subjects experiencing at least one TEAE: Injury, poisoning, and procedural complications [2]: 0 (0.0) No. (%)
- Subjects experiencing at least one TEAE: Musculoskeletal and connective tissue disorders [2]: 0 (0.0) No. (%)
- Subjects experiencing at least one TEAE: Nausea [2]: 3 (50.0) No. (%)
- Subjects experiencing at least one TEAE: Neck pain [2]: 0 (0.0) No. (%)
- Subjects experiencing at least one TEAE: Nervous system disorders [2]: 4 (66.7) No. (%)
- Subjects experiencing at least one TEAE: Pain in extremity [2]: 0 (0.0) No. (%)
- Subjects experiencing at least one TEAE: Sciatica, back pain [2]: 0 (0.0) No. (%)
- Subjects experiencing at least one TEAE: Skin abrasion [2]: 0 (0.0) No. (%)
- Subjects experiencing at least one TEAE: Total [2]: 4 (66.7) No. (%)
- Subjects experiencing at least one TEAE: Upper abdominal pain [2]: 0 (0.0) No. (%)
- Subjects experiencing at least one TEAE: Vomiting [2]: 3 (50.0) No. (%)
- Subjects experiencing at least one TEAE: Abdominal pain [3]: 1 (16.7) No. (%)
- Subjects experiencing at least one TEAE: Arthralgia [3]: 0 (0.0) No. (%)
- Subjects experiencing at least one TEAE: Back pain [3]: 0 (0.0) No. (%)
- Subjects experiencing at least one TEAE: Diarrhea [3]: 0 (0.0) No. (%)
- Subjects experiencing at least one TEAE: Flank pain [3]: 0 (0.0) No. (%)
- Subjects experiencing at least one TEAE: Gastrointestinal disorders [3]: 6 (100.0) No. (%)
- Subjects experiencing at least one TEAE: Headache [3]: 6 (100.0) No. (%)
- Subjects experiencing at least one TEAE: Injury, poisoning, and procedural complications [3]: 0 (0.0) No. (%)
- Subjects experiencing at least one TEAE: Musculoskeletal and connective tissue disorders [3]: 1 (16.7) No. (%)
- Subjects experiencing at least one TEAE: Nausea [3]: 6 (100.0) No. (%)
- Subjects experiencing at least one TEAE: Neck pain [3]: 0 (0.0) No. (%)
- Subjects experiencing at least one TEAE: Nervous system disorders [3]: 6 (100.0) No. (%)
- Subjects experiencing at least one TEAE: Pain in extremity [3]: 1 (16.7) No. (%)
- Subjects experiencing at least one TEAE: Sciatica, back pain [3]: 0 (0.0) No. (%)
- Subjects experiencing at least one TEAE: Skin abrasion [3]: 0 (0.0) No. (%)
- Subjects experiencing at least one TEAE: Total [3]: 6 (100.0) No. (%)
- Subjects experiencing at least one TEAE: Upper abdominal pain [3]: 0 (0.0) No. (%)
- Subjects experiencing at least one TEAE: Vomiting [3]: 4 (66.7) No. (%)
- Subjects experiencing at least one TEAE: Abdominal pain [4]: 0 (0.0) No. (%)
- Subjects experiencing at least one TEAE: Arthralgia [4]: 0 (0.0) No. (%)
- Subjects experiencing at least one TEAE: Back pain [4]: 0 (0.0) No. (%)
- Subjects experiencing at least one TEAE: Diarrhea [4]: 0 (0.0) No. (%)
- Subjects experiencing at least one TEAE: Flank pain [4]: 0 (0.0) No. (%)
- Subjects experiencing at least one TEAE: Headache [4]: 0 (0.0) No. (%)
- Subjects experiencing at least one TEAE: Injury, poisoning, and procedural complications [4]: 1 (16.7) No. (%)
- Subjects experiencing at least one TEAE: Musculoskeletal and connective tissue disorders [4]: 0 (0.0) No. (%)
- Subjects experiencing at least one TEAE: Nausea [4]: 0 (0.0) No. (%)
- Subjects experiencing at least one TEAE: Neck pain [4]: 0 (0.0) No. (%)
- Subjects experiencing at least one TEAE: Nervous system disorders [4]: 0 (0.0) No. (%)
- Subjects experiencing at least one TEAE: Pain in extremity [4]: 0 (0.0) No. (%)
- Subjects experiencing at least one TEAE: Sciatica, back pain [4]: 0 (0.0) No. (%)
- Subjects experiencing at least one TEAE: Skin abrasion [4]: 1 (16.7) No. (%)
- Subjects experiencing at least one TEAE: Total [4]: 1 (16.7) No. (%)
- Subjects experiencing at least one TEAE: Upper abdominal pain [4]: 0 (0.0) No. (%)
- Subjects experiencing at least one TEAE: Vomiting [4]: 0 (0.0) No. (%)
- Frequency of subjects receiving ABX464 who reported TEAEs (all other groups (4 to 8)): 100%
- Subjects with vomiting episodes (group receiving 150 mg ABX464): 66.7%
- Changes in laboratory parameters between baseline and posttreatment (in vivo): none of the changes in any laboratory parameter observed between baseline and posttreatment measurements suggested an impact
- Electrocardiogram (ECG) parameters (in vivo): no clinically significant abnormalities
- Product-related SAEs (in vivo): no product-related SAEs occurred
- Subjects reporting upper abdominal pain (overall): 6%
- Number of AEs reported (subjects who received the study drug, regardless of the dose or the drug regimen): 158 AEs
- Subjects reporting upper abdominal pain (twenty cases, none in placebo): 4 subjects
- Overall safety and tolerability (up to 150 mg once a day, HIV-infected subjects): safe and well tolerated
